The results in this text go back to patent US20170319611A1, “METHODS AND COMPOSITIONS COMPRISING AKT INHIBITORS AND/OR PHOSPHOLIPASE D INHIBITORS” (Vanderbilt University, priority 2012, published 2017).

Test [1] has as its system LC3 and p62. Description: Autophagy marker immunoblot (LC3-II, p62), U87MG cells. The class given is cell-based, human. The following applies: 10 nM bafilomycin A1 30 min, then inhibitor 6 h. As to the method: Lysates were prepared by incubating cell pellets in lysis buffer (see immunoprecipitation procedure) for 30 minutes at 4° C. Protein concentrations were measuring using the Bio-Rad protein assay reagent. The antibodies used in the various studies as described herein, along with their vendors and catalog numbers are provided in Table 3.
In addition to apoptosis, cells undergo another type of programmed cell death requiring autophagy (Tsujimoto and Shimizu, (2005) Cell Death Differ. 12 Suppl 2, 1528-1534), a process known to be stimulated by nutrient or growth factor deprivation (Kroemer, G. et al., (2010) Mol. Cell 40, 280-293). Autophagy is a multistep process involving formation of double-membrane autophagosomes that engulf cytosolic components and deliver cargo to lysosomes for digestion and nutrient recycling (Ravikumar, B. et al., (2009) J. Cell Sci. 122, 1707-1711). In order to determine if autophagy was perturbed following PLD or Akt inhibitor (MK2206) (Hirai, H. et al., (2010) Mol. Cancer Ther. 9, 1956-1967) treatment, the expression levels of the well-characterized autophagy makers microtubule-associated protein 1A/1B-light chain 3 (LC3) and p62 were measured. Autophagasome number is frequently assessed by measuring conversion of cytosolic LC3-I to a membrane-associated, lipidated LC3-II which is readily measureable as a faster migrating species of LC3 during SDS-PAGE (Kabeya, Y. et al., (2000) EMBO J. 19, 5720-5728). The other marker, p62, is an LC3 and ubiquitin-binding protein, involved in the regulation of protein aggregates and is degraded by autophagy (Komatsu, M. et al., (2005) J. Cell Biol. 169, 425-434). Induction of autophagy and successful degradation of autophagosomes would thus be accompanied by a decrease in p62 levels. […] Fold change in immunoreactivity relative to vehicle control. ANOVA with Dunnett's post-hoc test was used to compare inhibitor treatment to vehicle control (**p<0.01).
To conclusively determine that flux, rather than autophagosome initiation, is regulated by PLC, LC3-II conversion in the presence of the lysosomal proton pump inhibitor bafilomycin A1, which prevents autophagosome fusion to lysosomes and inhibits degradation of autophagosomes, was measured. Thus, bafilomycin A1 is commonly used to discriminate the effects of a compound on autophagy initiation versus flux by assessing LC3-II levels in the presence of a test compound after clamping degradation of autophagosomes (Yamamoto, A. et al., (1998) Cell Struct. Funct. 23, 33-42).
(In general: In western blotting, separated proteins are transferred to a membrane and probed.)

In test [2] the target is T1, PLD2-Akt interaction (Homo sapiens, UniProt P31749).
T1 construct: 6xHis (N); made in house; host or cells: Sf21 insect cells (baculovirus)
Description: In vitro protein-protein interaction assay, purified PLD2 and Akt. The class given is binding. The following applies: purified proteins, 10 μM inhibitor in reaction mixture. On the procedure: 25 nM PLD2-PtS or PtS tag were incubated with 50 nM 6×His-Aktl for 2 h in 50 mM Tris pH 8.0, 0.01% Nonidet P-40, 150 mM NaCl, 0.5 mM EDTA, and 50 mg/mL avidin. Where indicated, 10 μM inhibitor was included in the reaction mixture. PtS-tagged proteins were captured by incubation with strep-tactin resin for 2 h.
Although proteins may co-IP from cell lysate, determining whether proteins form a direct interaction requires binding experiments with purified proteins. As described herein, recombinant Akt and PLD2 was then expressed and purified from Sf21 insect cells (FIG. 8C). […] Numbers indicate molecular weights in kilodaltons. […] Since PLD2 and Akt appear to interact directly, the PLD inhibitors were evaluated to determine whether they disrupted the protein-protein interaction as a potential mechanism by which PLD2 regulates activation of Akt in cells. As described herein, purified PLD2 and Akt were incubated in the presence of EVJ, JWJ, or the allosteric pan-Akt inhibitor, MK2206 (Hirai, H. et al., (2010) Mol. Cancer Ther. 9, 1956-1967) and proteins captured using affinity resin. […] Referring to FIG. 9B, the same procedure was used as in 9A, except 10 μM EVJ, JWJ, or Akt inhibitor MK2206 was included in the reaction mixture.

T1 sequence (P31749 whole entry): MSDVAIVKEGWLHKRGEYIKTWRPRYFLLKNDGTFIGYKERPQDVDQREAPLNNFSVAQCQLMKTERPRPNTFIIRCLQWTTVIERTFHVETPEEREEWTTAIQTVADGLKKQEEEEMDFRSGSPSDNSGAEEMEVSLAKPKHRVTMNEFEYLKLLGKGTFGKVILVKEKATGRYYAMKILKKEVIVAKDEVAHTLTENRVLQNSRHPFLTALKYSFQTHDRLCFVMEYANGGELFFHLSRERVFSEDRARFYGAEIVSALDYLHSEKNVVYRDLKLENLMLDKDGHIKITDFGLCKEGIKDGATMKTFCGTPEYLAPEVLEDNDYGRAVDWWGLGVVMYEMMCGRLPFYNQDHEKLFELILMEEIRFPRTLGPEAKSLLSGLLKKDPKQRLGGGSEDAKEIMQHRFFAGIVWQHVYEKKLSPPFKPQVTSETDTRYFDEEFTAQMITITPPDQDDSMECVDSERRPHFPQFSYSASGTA

`O=C(NCCN1CCC2(CC1)C(=O)NCN2c1cccc(F)c1)c1ccc2ccccc2c1` [No. 1, N-(2-(1-(3-fluorophenyl)-4-oxo-1,3,8-triazaspiro[4.5]decan-8-yl)ethyl)-2-naphthamide]: the “accumulation of LC3-II in the presence of bafilomycin A1” value in test [1] is “no additional accumulation of LC3-II”. Moreover, the PLD2-Akt interaction result in test [2] is reported as “detected even in the presence of PLD inhibitors”.
